Source: patent publication US12037324B2, “Biarylmethyl heterocycles” (Université de Montréal, priority 2016, dated 2024)

Assays:
Assay type in all cases: cell-based
[1] = target: T1, AGTR1 (Homo sapiens, UniProt P30556); assay: DiscoveRx β-arrestin2 recruitment assay (enzyme complementation, Pathunter CHO-K1 AGTR1 β-arrestin cell line); conditions: DiscoveRx β-arrestin2 recruitment; for DiscoveRx β-arrestin2 Ymax (%): maximal response
T1 construct: host or cells: Pathunter CHO-K1 AGTR1 β-arrestin cell line (CHO-K1)
T1 sequence (P30556 1-359): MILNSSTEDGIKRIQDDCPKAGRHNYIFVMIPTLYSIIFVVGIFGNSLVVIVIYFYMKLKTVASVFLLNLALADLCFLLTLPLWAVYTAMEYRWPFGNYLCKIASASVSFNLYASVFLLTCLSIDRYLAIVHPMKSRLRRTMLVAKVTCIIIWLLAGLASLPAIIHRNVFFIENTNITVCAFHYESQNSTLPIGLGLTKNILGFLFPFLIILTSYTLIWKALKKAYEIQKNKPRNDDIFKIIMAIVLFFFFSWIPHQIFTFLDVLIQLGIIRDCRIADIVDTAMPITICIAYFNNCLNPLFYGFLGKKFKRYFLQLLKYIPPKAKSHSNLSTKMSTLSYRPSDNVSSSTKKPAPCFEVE
In short: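 CHO-K1 cells expressing AGTR1 with β-arrestin2 enzyme-complementation reporter, plated 14-16 h ahead in 1% serum medium, then exposed to compounds for 90 min at 37° C. Chemiluminescence read after 1 h detection. EC50 (agonist) or IC50 (antagonist) from 4-parameter logistic fit; activity as percentage of All maximal effect.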

[2] = target: T2, hAT1R (Homo sapiens, UniProt P30556); assay: BRET Gq biosensor assay, agonist response, HEK293 cells; conditions: section of the 42nd table directly before the BRET P63 section
T2 sequence (P30556 1-359): T1 sequence (P30556 1-359)
Experimental: BRET β-arrestin2 and Gq Activation Assays
In another aspect of the invention, association of the ATIR with signaling proteins is assessed using bioluminescence resonance energy transfer assays (Stephane Angers, Ali Salahpour et al. 2002). This technology measures the association between bioluminescent and fluorescent protein tags.
Several of the plasmid constructs used in BRET experiments were previously described. Briefly, the coding sequence of β-arrestin2 was fused to Renilla luciferase II to generate β-arrestin2-Rluc (Quoyer, Janz et al. 2013). The membrane targeting motif from K-Ras, CAAX motif (GKKKKKKSKTKCVIM), was fused to Renilla GFP to create rGFP-CAAX plasmid (Namkung Y et al., Nat Commun (2016) 7, 12178). The Renilla luciferase II was inserted in the Gaq protein to generate Gaq-Rluc (Breton, Sauvageau et al. 2010). The Gγ1 protein was tagged with GFP10 to obtain GFP-Gyl, using the same strategy described previously for GFP-Gy2 (Gales, Rebois et al. 2005). The Gaq binding domain of the p63RhoGEF protein (amino acids 295-502) was fused to Renilla luciferase II to create P63-Rluc. Finally, the hAT1R plasmid construct encoding the receptor was generated by optimizing the coding sequence of human angiotensin II receptor (GeneOptimizer from ThermoFisher), and adding an artificial cleavable signal peptide from bovine prolactin ([…]) in N-terminus of the receptor to increase cell surface expression.
Gq Biosensor Assay HEK293 cells were cultured in DMEM supplemented with Penicillin-Streptomycin and 10% fetal bovine serum. Two days before the BRET experiment, HEK293 cells were transfected with hAT1R expression plasmid (200 ng/well) as well as Gaq-Rluc (100 ng/well), Gβ1 (375 ng/well) and GFP-Gγ1 (625 ng/well), using linear polyethylenimine 25 kDa (PEI) at a PEI:DNA ratio of 3:1. Transfected cells were directly seeded in 96-well plates, at a density of 35 000 cells per well, and maintained in culture for the next 48 h.
BRET experiments were carried out subsequently using the following procedures: cells were washed once with Tyrode's buffer (137 mM NaCl, 1 mM CaCl2, 0.9 mM KCl, […], 3.6 mM NaH2PO4, 5.5 mM glucose, 12 mM NaHCO3, and 25 mM HEPES, pH 7.4) and 90 μl of Tyrode's buffer was added to each well. Cells were equilibrated in their new buffer at room temperature for at least 30 minutes. Following the equilibration period, the coelenterazine substrate was first added to the cells, 10 μl per well of a 10×solution (prolume purple coelenterazine at a final concentration of 2 μM), immediately followed by compound addition using the HP D300 digital dispenser from Tecan (10 singlicate concentrations). Cells were incubated for 5 min at room temperature and BRET readings were then collected using a Synergy Neo Multi-Mode reader from BioTek with BRET2 filters 410/515, to record agonist response. […] A second reading was collected 5 min after this second addition, using the Synergy Neo Multi-Mode reader from BioTek with BRET2 filters 410/515, to record antagonist response. The BRET signal was determined by calculating the ratio of the light emitted by GFP (515 nm) over the light emitted by the Rluc (410 nm). To analyze agonist response, BRET signal values were converted into percentage of activation using the non-stimulated control as 0% and AngII maximal response as 100%. Sigmoidal concentration-response curves were generated with those normalized values using a 4-parameter logistic equation (IDBS ActivityBase software), to determine EC50 of the different compounds. In the case of antagonist response analysis, BRET signal values were converted into percentage of inhibition using the fixed dose of AngII (corresponding to the EC50) as 0% and non-stimulated control as 100%. Sigmoidal concentration-response curves were generated with those normalized values using a 4-parameter logistic equation (IDBS ActivityBase software), to determine IC50 of the different compounds.

[3] = target: T2, hAT1R; assay: BRET β-arrestin2 biosensor assay, higher receptor expression (hAT1R 5 ng/well), HEK293 cells; conditions: for EC50: High AT1R Expression

Structure (SMILES): CCCCC(=O)N(Cc1ccc(-c2cc(-c3ccccc3)ccc2-c2nn[nH]n2)cc1)C(C)(C)C(=O)O [Example 268, 2-(N-((6′-(2H-Tetrazol-5-yl)-[1,1′:3′,1″-terphenyl]-4-yl)methyl)pentanamido)-2-methylpropanoic acid]
- EC50 [1]: 628 nM
- DiscoveRx β-arrestin2 Ymax (%) [1]: 39.8%
- EC50 [2]: 1090 nM
- BRET β-Arrestin2 High AT1R Expression Ymax (%) [3]: 73.8%
- EC50 [3]: 1030 nM

Structure (SMILES): CCCCC(=O)N(Cc1ccc(-c2cc(-c3ccccc3)ccc2-c2nn[nH]n2)cc1)C1(C(=O)O)CC1 [Example 269]
- EC50 [1]: 6540 nM
- DiscoveRx β-arrestin2 Ymax (%) [1]: 14.2%
- EC50 [2]: > 100000 nM
- BRET β-Arrestin2 High AT1R Expression Ymax (%) [3]: 58.7%
- EC50 [3]: 30700 nM

Structure (SMILES): CCCCC(=O)N(Cc1ccc(-c2cc(-c3ccccc3)ccc2-c2nn[nH]n2)cc1)C1(C(=O)O)CCC1 [Example 270]
- EC50 [1]: 6550 nM
- DiscoveRx β-arrestin2 Ymax (%) [1]: 28.6%
- EC50 [2]: 4680 nM
- BRET β-Arrestin2 High AT1R Expression Ymax (%) [3]: 74.3%
- EC50 [3]: 12900 nM

Structure (SMILES): CCCCC(=O)N(Cc1ccc(-c2cc(-c3ccccc3)ccc2-c2nn[nH]n2)cc1)C1(C(=O)O)CCCC1 [Example 271]
- EC50 [1]: 384 nM
- DiscoveRx β-arrestin2 Ymax (%) [1]: 45.5%
- EC50 [2]: 590 nM
- BRET β-Arrestin2 High AT1R Expression Ymax (%) [3]: 80.3%
- EC50 [3]: 561 nM

Structure (SMILES): CCCCC(=O)N(Cc1ccc(-c2cc(-c3ccccc3)ccc2-c2nn[nH]n2)cc1)C1(C(=O)O)CCCCC1 [Example 272]
- EC50 [1]: 16.5 nM
- DiscoveRx β-arrestin2 Ymax (%) [1]: 43.5%
- EC50 [2]: > 100000 nM
- BRET β-Arrestin2 High AT1R Expression Ymax (%) [3]: 84.0%
- EC50 [3]: 15.2 nM

Structure (SMILES): CCCCC(=O)N(Cc1ccc(-c2cc(-c3ccccc3)ccc2-c2nn[nH]n2)nc1)C1(C(=O)O)CCCCC1 [Example 273]
- EC50 [1]: 21.4 nM
- DiscoveRx β-arrestin2 Ymax (%) [1]: 39.3%
- EC50 [2]: 155 nM
- BRET β-Arrestin2 High AT1R Expression Ymax (%) [3]: 88.1%
- EC50 [3]: 23.2 nM

Structure (SMILES): CCCCC(=O)N(Cc1ccc(-c2cc(-c3ccccc3)ccc2-c2nn[nH]n2)cn1)C1(C(=O)O)CCCCC1 [Example 274]
- EC50 [1]: 251 nM
- DiscoveRx β-arrestin2 Ymax (%) [1]: 37.5%
- EC50 [2]: 1490 nM
- BRET β-Arrestin2 High AT1R Expression Ymax (%) [3]: 82.5%
- EC50 [3]: 279 nM

Structure (SMILES): CCCCC(=O)N(Cc1ccc(-c2cc(-c3ccccc3)ccc2-c2nn[nH]n2)cc1)C1(C(=O)O)CCC(C)(C)CC1 [Example 275, 1-(N-((6′-(2H-Tetrazol-5-yl)-[1,1′:3′,1″-terphenyl]-4-yl)methyl)pentan-amido)-4,4-dimethylcyclohexanecarboxylic acid]
- EC50 [1]: 26.6 nM
- DiscoveRx β-arrestin2 Ymax (%) [1]: 50.9%
- EC50 [2]: > 100000 nM
- BRET β-Arrestin2 High AT1R Expression Ymax (%) [3]: 71.5%
- EC50 [3]: 21.5 nM

Structure (SMILES): CCCCC(=O)N(Cc1ccc(-c2cc(-c3ccccc3)ccc2-c2nn[nH]n2)cc1)C1(C(=O)O)CCOCC1 [Example 276]
- EC50 [1]: 50 nM
- DiscoveRx β-arrestin2 Ymax (%) [1]: 50.9%
- EC50 [2]: 401 nM
- BRET β-Arrestin2 High AT1R Expression Ymax (%) [3]: 73.6%
- EC50 [3]: 77.9 nM

Structure (SMILES): CCCCC(=O)N(Cc1ccc(-c2cc(-c3ccccc3)ccc2-c2nn[nH]n2)cc1)C1(C(=O)O)CCCCCC1 [Example 277]
- EC50 [1]: 36.1 nM
- DiscoveRx β-arrestin2 Ymax (%) [1]: 46.0%
- EC50 [2]: > 100000 nM
- BRET β-Arrestin2 High AT1R Expression Ymax (%) [3]: 79.4%
- EC50 [3]: 28.9 nM

Structure (SMILES): CCCCC(=O)N(Cc1ccc(-c2cc(-c3ccccc3)ccc2-c2nn[nH]n2)cc1)[C@]1(C(=O)O)CC[C@@H](C)CC1 [Example 278]
- EC50 [1]: 45.1 nM
- DiscoveRx β-arrestin2 Ymax (%) [1]: 51.9%
- EC50 [2]: 1210 nM
- BRET β-Arrestin2 High AT1R Expression Ymax (%) [3]: 87.2%
- EC50 [3]: 13 nM

Structure (SMILES): CCCCC(=O)N(Cc1ccc(-c2cc(-c3ccccc3)ccc2-c2nn[nH]n2)cc1)C1(C(=O)O)Cc2ccccc2C1 [Example 279]
- EC50 [1]: 190 nM
- DiscoveRx β-arrestin2 Ymax (%) [1]: 33.7%
- EC50 [2]: > 100000 nM
- BRET β-Arrestin2 High AT1R Expression Ymax (%) [3]: 82.6%
- EC50 [3]: 210 nM

Structure (SMILES): CCCCC(=O)N(Cc1ccc(-c2cc(-c3ccccc3)ccc2-c2noc(=O)[nH]2)cc1)C1(C(=O)OC)CCCCC1 [Example 280, Methyl 1-(N-((6′-(5-oxo-4,5-dihydro-1,2,4-oxadiazol-3-yl)-[1,1′:3′,1″-terphenyl]-4-yl)methyl)pentanamido)cyclohexanecarboxylate]
- EC50 [1]: 904 nM
- DiscoveRx β-arrestin2 Ymax (%) [1]: 35.2%
- EC50 [2]: 2870 nM
- BRET β-Arrestin2 High AT1R Expression Ymax (%) [3]: 75.7%
- EC50 [3]: 699 nM

Structure (SMILES): CCCCC(=O)N(Cc1ccc(-c2cc(-c3ccccc3)ccc2-c2noc(=O)[nH]2)cc1)C1(C(=O)O)CCCCC1 [Example 281]
- EC50 [1]: 41.6 nM
- DiscoveRx β-arrestin2 Ymax (%) [1]: 47.4%
- EC50 [2]: 232 nM
- BRET β-Arrestin2 High AT1R Expression Ymax (%) [3]: 93.1%
- EC50 [3]: 10.5 nM

Structure (SMILES): CCCCC(=O)N(Cc1ccc(-c2cc(-c3ccccc3)ccc2-c2nn[nH]n2)cc1)[C@]1(C(=O)O)CC[C@@H](O)CC1 [Example 283, (1R,4R)-1-(N-((6′-(2H-Tetrazol-5-yl)-[1,1′:3′,1″-terphenyl]-4-yl)methyl)pentan-amido)-4-hydroxycyclohexanecarboxylic acid]
- EC50 [1]: 44.5 nM
- DiscoveRx β-arrestin2 Ymax (%) [1]: 57.5%
- EC50 [2]: 155 nM
- BRET β-Arrestin2 High AT1R Expression Ymax (%) [3]: 88.5%
- EC50 [3]: 22.8 nM

Structure (SMILES): CCCCC(=O)N(Cc1ccc(-c2cc(-c3ccccc3)ccc2-c2nn[nH]n2)cc1)[C@]1(C(=O)O)CC[C@H](O)CC1 [Example 284, (1S,4S)-1-(N-((6′-(2H-Tetrazol-5-yl)-[1,1′:3′,1″-terphenyl]-4-yl)methyl)pentanamido)-4-hydroxycyclohexanecarboxylic acid]
- EC50 [1]: 21.1 nM
- DiscoveRx β-arrestin2 Ymax (%) [1]: 62.7%
- EC50 [2]: 151 nM
- BRET β-Arrestin2 High AT1R Expression Ymax (%) [3]: 92.9%
- EC50 [3]: 33 nM

Structure (SMILES): CCCCC(=O)N(Cc1ccc(-c2cc(Oc3ccccc3)ccc2-c2nn[nH]n2)cc1)C1(C(=O)O)CCCCC1 [Example 285, 1-(N-((5′-Phenoxy-2′-(2H-tetrazol-5-yl)-[1,1′-biphenyl]-4-yl)methyl)pentanamido)cyclohexanecarboxylic acid]
- EC50 [1]: 66.4 nM
- DiscoveRx β-arrestin2 Ymax (%) [1]: 24.8%
- EC50 [2]: 1540 nM
- BRET β-Arrestin2 High AT1R Expression Ymax (%) [3]: 33.4%
- EC50 [3]: 57.3 nM

Structure (SMILES): CCCCC(=O)N(Cc1ccc(-c2cc(Oc3cccnc3)ccc2-c2nn[nH]n2)cc1)C1(C(=O)O)CCCCC1 [Example 286]
- EC50 [1]: 113 nM
- DiscoveRx β-arrestin2 Ymax (%) [1]: 35.8%
- EC50 [2]: 302 nM
- BRET β-Arrestin2 High AT1R Expression Ymax (%) [3]: 45.3%
- EC50 [3]: 47.1 nM
